The source of these data is ChEMBL document CHEMBL1136211, “Design of quinolinedione-based geldanamycin analogues” (2003).

Common to all, as to type: functional
Assay [1] concerns Cancer cell lines. In words: Concentration required to inhibit growth of cells in 60 cancer cell lines.
The test system of assay [2] is Cancer cell lines. In words: Concentration required to inhibit total growth of cells in 60 cancer cell lines. The conditions noted are these: read-out: Log TGI (converted).
The subject of assay [3] is Cancer cell lines. In words: Concentration required to kill cells.

In general, GI50 refers to the concentration at which growth is held to half of that of the control. Higher therefore signals less potent growth inhibition. Usually TGI stands for the concentration at which net growth stops. For orientation: LC50 means the concentration lethal to half of the exposed cells or organisms.

`O=C1C(NCCCl)=CC(=O)c2nc(-c3ccccc3)ccc21` gave a GI50 in the assay with Cancer cell lines [1] of 27.5 nM. In addition, the TGI in the assay on Cancer cell lines [2] was 324 nM. The compound further had a 50% lethal concentration (LC50) in the assay with Cancer cell lines [3] of 2.04 µM.
Consider `O=C1C=C(N2CC2)C(=O)c2nc(-c3ccccc3)ccc21`, for which, in the assay on Cancer cell lines [1], the GI50 was 263 nM. Also, in the assay on Cancer cell lines [2], the TGI is 1780 nM. The compound further showed an LC50 with Cancer cell lines [3] of 11.2 µM.
For `O=C1C=C(N2CC2)C(=O)c2nc(-c3ccc4ccccc4c3)ccc21` the same measures were 3470 nM, 10700 nM and 40.7 µM.
The like results for `O=C1C(N2CC2)=CC(=O)c2nc(-c3ccc4ccccc4c3)ccc21` were, in that order, 204 nM, 1070 nM and 5.62 µM.
The like results for `O=C1C(N2CC2)=CC(=O)c2nc(-c3ccccc3)ccc21` were, in that order, 52.5 nM, 513 nM and 4.07 µM.
`O=C1C(N2CC2)=CC(=O)c2nc(-c3ccccn3)ccc21` gave a GI50 with Cancer cell lines [1] of 646 nM. Besides, the total growth inhibition concentration (TGI) in the assay on Cancer cell lines [2] is 2450 nM. This compound had an LC50 with Cancer cell lines [3] of 9.77 µM.
The like results for `O=C1/C(=N/CCO)C=C(O)c2nc(-c3ccccc3)ccc21` were, in that order, 2950 nM, 20000 nM and 60.3 µM.
